4 molecules from patent US11739161B2, “Methods for treating and diagnosing prostate cancer” (Tufts Medical Center, Inc., priority 2017, dated 2023) can be followed below.

Assay type in all cases: cell-based, human
One test relates to DU145 cells. Briefly: RNASE4-induced cell proliferation (MTT assay). How it is done:
(§1) FIGS. 10A-E. RNASE4 induces prostate cancer cell proliferation and phosphorylation of AKT and S6. (A and B) Exogenous RNASE4 (1 μg/ml) stimulates cell proliferation (A) and cell cycle progression (B) of DU145 cells cultured in the presence of 2% FBS. Cell numbers were determined by MTT assay. Cell cycle status was determined by flow cytometry after 24 hour incubation with RNASE4. (C) Time course of AKT and S6 phosphorylation of serum-starved DU145 cells by RNASE4 (1 μg/ml). Left panels, immunoblots; right panels, quantification of p-AKT and p-S6 normalized to total AKT and S6 by Image J analysis. […] Cells were pre-incubated with the inhibitors at the indicated concentrations for 1 hour prior to be stimulated by 1 μg/ml of RNASE4 for 5 minutes. Top panels, immunoblots; bottom panels, Image J quantification of p-AKT and p-S6 normalized to total AKT and S6. (E) Effect of AKT inhibitor MK-2206, PI3K inhibitors Wortmannin and LY294002, and mTOR inhibitor Rapamycin on RNASE4-induced cell proliferation. DU145 cells were serum-starved overnight, incubated with the inhibitors for 1 hour, and then treated with RNASE4 (1 μg/ml) for three days. Cell numbers were determined by MTT assay. Data shown are from a representative experiments in triplicates of 3 independent repeats. Error bars indicate SEM. **P≤0.01, by unpaired two-tailed Student's t test.
FIGS. 12A-F. RNASE4 induces AXL phosphorylation. (A) Human phospho-receptor tyrosine kinase (RTK) antibody array analysis. Serum-starved DU145 cells were treated with or without 1 μg/ml of RNASE4 for 5 minutes. […] Cell lysates were analyzed by antibodies against total AXL and phospho-AXL, with β-actin as the loading control. Left panels, immunoblots; right panel, Image J quantification of p-AXL normalized to total AXL. […] Left panels, immunoblots; right panel, quantification. […] Cell numbers were determined by MTT assay. […] Cell lysates were analyzed for AKT and P6 phosphorylation by immunoblotting. Top panels, immunoblots; bottom panels, quantification of phospho-AKT and phospho-S6 by Image J analyses normalized to total AKT and P6, respectively. […]
(Tetrazolium dyes change colour on reduction, which living cells bring about.)

The subject of another test is PC-3 cells. As to the kind of experiment: RNASE4-induced cell proliferation (MTT assay). How it is done: FIGS. 11A-F. RNASE4 induces PC-3 cell proliferation and phosphorylation of AKT and S6. (A) Exogenous RNASE4 (1 μg/ml) stimulates PC-3 cells proliferation in the presence of 2% FBS. Cell numbers were determined by MTT assay. (B) Time course of AKT and S6 phosphorylation of serum-starved PC-3 cells by RNASE4 (1 μg/ml). Left panels, immunoblots; right panels, quantification of p-AKT and p-S6 normalized to total AKT and S6 by Image J. (C) Effect of AKT inhibitor MK-2206, PI3K inhibitors LY294002 and Wortmannin, and mTOR inhibitor Rapamycin on RNASE4-induced PC-3 cell proliferation. Cells were pre-incubated with the inhibitors at the indicated concentrations for 1 hour prior to be stimulated by RNASE4 (1 μg/ml) for 3 days. Cell numbers were determined by MTT assay. (D) Human phospho-RTK antibody array analysis of starved PC-3 cells treated with or without 1 μg/ml RNASE4 for 5 minutes. (E) Time course of AXL phosphorylation stimulated by RNASE4 in PC-3 cells. Serum-starved PC-3 cells were treated with 1 μg/ml RNASE4 for different time. Cell lysates were analyzed for total AXL and phopho-AXL by immunoblotting. Left panels, immunoblots; right panel, quantification phospho-AXL normalized to total AXL by Image J analysis. (F) Effect of AXL inhibitor R428 on RNASE4-induced PC-3 cell proliferation. Serum-starved PC-3 cells were incubated with 1 or 3 μM R428 for 3 hours and then stimulated by 1 μg/ml of RNASE4 for 3 days. Cell numbers were determined by MTT assay. Data shown are means±SEM of a representative experiments in triplicates of 3 independent repeats. **P≤0.01 and ***P≤0.001, by unpaired two-tailed Student's t test.

In test [1] the test system is AKT and S6 phosphorylation in DU145 cells. Briefly: RNASE4-induced phosphorylation of AKT and S6 (immunoblot). The settings on record: then 1 μg/ml RNASE4 5 minutes. How it is done:
as §1
(§2) FIGS. 12A-F. RNASE4 induces AXL phosphorylation. (A) Human phospho-receptor tyrosine kinase (RTK) antibody array analysis. Serum-starved DU145 cells were treated with or without 1 μg/ml of RNASE4 for 5 minutes. A total of 1.5 mg cell lysate protein was blotted on each array membrane. […] (B) Immunoblot analysis of RNASE4-stimulated AXL phosphorylation. DU145 cells were serum-starved overnight and treated with 1 μg/ml of RNASE4 for the indicated time. Cell lysates were analyzed by antibodies against total AXL and phospho-AXL, with β-actin as the loading control. Left panels, immunoblots; right panel, Image J quantification of p-AXL normalized to total AXL. (C) Immunoblot analysis of phospho-AXL in response to stimulation by ANG, RNase A, and RNASE4. DU145 cells were serum-starved overnight and treated with 1 μg/ml of ANG, RNase A, or RNASE4 for 15 minutes. Left panels, immunoblots; right panel, quantification. (D) Effect of AXL inhibitor R428 on RNASE4-induced cell proliferation. Serum-starved DU145 cells were incubated with 1 or 3 μM R428 for 3 hours and then stimulated by 1 μg/ml of RNASE4 for 3 days. Cell numbers were determined by MTT assay. Data shown are means±SEM of a representative experiment (in triplicates) of 3 independent repeats. **P≤0.01 and ***P≤0.001, by unpaired two-tailed Student's t test. (E) Effect of AXL inhibitor R428 on RNASE4-induced AKT and P6 phosphorylation. Serum-starved DU145 cells were incubated with 1 or 3 μM R428 for 3 hours and then stimulated by 1 μg/ml of RNASE4 for 5 minutes. Cell lysates were analyzed for AKT and P6 phosphorylation by immunoblotting. Top panels, immunoblots; bottom panels, quantification of phospho-AKT and phospho-S6 by Image J analyses normalized to total AKT and P6, respectively. (F) Schematic presentation of proposed involvement of AXL in RNASE4-stimulated cellular events.

Test [2] has as its system AXL phosphorylation in DU145 cells. Briefly: AXL phosphorylation (phospho-RTK array, immunoblot). To be noted: serum-starved DU145, 1 μg/ml protein. How it is done:
as §2
Human Phospho-RTK Arrays were purchased from R&D Systems. […] Protein concentrations were quantified by Bradford Assay and 1.5 mg cell lysate was used per array. Pixel densities on were analyzed by ImageJ. […]

[3] abbreviates: serum-starved DU145, 1 or 3 μM R428 3 hours.

For `NC1(c2ccc(-c3nc4ccn5c(=O)[nH]nc5c4cc3-c3ccccc3)cc2)CCC1` [MK-2206], the RNASE4-induced cell proliferation result with DU145 cells (serum-starved DU145, inhibitor 1 hour, then RNASE4 1 μg/ml three days) is “abolished”. Further, the RNASE4-induced cell proliferation result in the test with PC-3 cells (PC-3, inhibitor 1 hour, then RNASE4 1 μg/ml 3 days) is reported as “abolished”. In addition, in test [1] (DU145, inhibitor 1 hour), the “RNASE4-induced AKT phosphorylation” value is on record as “inhibited” and the “RNASE4-induced S6 phosphorylation” value is “inhibited”.
Turning to `Nc1nc(Nc2ccc3c(c2)CCC(N2CCCC2)CC3)nn1-c1cc2c(nn1)-c1ccccc1CCC2` (stereo not shown) [R428], the RNASE4-induced cell proliferation result with DU145 cells (serum-starved DU145, 1 or 3 μM R428 3 hours, then 1 μg/ml RNASE4 3 days) was “inhibted”; with PC-3 cells (serum-starved PC-3, 1 or 3 μM R428 3 hours, then 1 μg/ml RNASE4 3 days), “inhibted”. For the same molecule, the “RNASE4-induced AKT phosphorylation” value in test [1] (setting [3]) was “inhibted”. Further, in test [1] (setting [3]), the “RNASE4-induced S6 phosphorylation” value is given as “inhibted”.
With “ANG: Angiogenin, another member of the pancreatic ribonuclease superfamily [reference compound]”, the “phosphorylation of AXL” value in test [2] was “do not induce”.

B1: RNase A: member of the pancreatic ribonuclease superfamily (protein, UniProt P61823 27-150, looked up)
Ribonuclease pancreatic: KETAAAKFERQHMDSSTSAASSSNYCNQMMKSRNLTKDRCKPVNTFVHESLADVQAVCSQKNVACKNGQTNCYQSYSTMSITDCRETGSSKYPNCAYKTTQANKHIIVACEGNPYVPVHFDASV
In the case of B1, the “phosphorylation of AXL” value in test [2] is listed as “do not induce”.
